Reference: US20240425464A1, “Substituted Monohydrazides as Potent Antifungal Agents” (University of Kentucky Research Foundation, priority 2023, published 2024)
In brackets after ≈: the same amount, converted by molar mass. Like-named read-outs stand apart in the source and are kept apart here.

How the values were obtained:
[1] = tested on: C. albicans ATCC MYA-2876 (C); test: MIC determination by in vitro antifungal assay; format: cell-based, Candida albicans; settings: strain C = C. albicans ATCC MYA-2876(S)
Procedure: (§1) 10 mg/mL stock solutions of compounds 1a-9j were prepared in dimethyl sulfoxide (DMSO) and were stored at −20° C. in the dark. The antifungal agent amphotericin B (AmB) was purchased from VWR (Radnor PA, USA). AmB was dissolved in DMSO at a final concentration of 5 mg/mL and was stored at −20° C., protected from light. Candida albicans American Type Culture Collection (ATCC) 10231 (strain A), C. albicans ATCC 64124 (B), and C. albicans ATCC MYA-2876 (C) were obtained from Utah State University. C. albicans ATCC 90819 (D), C. albicans ATCC MYA-2310 (E), C. albicans ATCC MYA-1237 (F), C. albicans ATCC MYA-1003 (G), Candida glabrata ATCC 2001 (H), Candida krusei ATCC 6258 (I), Candida parapsilosis ATCC 22019 (J), Cryptococcus neoformans ATCC MYA-895 (M), Aspergillus terreus ATCC MYA-3633 (N), and Aspergillus flavus ATCC MYA-3631 (0) were obtained from the American Type Culture Collection (ATCC; Manassas, VA, USA). Aspergillus nidulans ATCC 38163 (P) was obtained from University of Kentucky. Clinically derived Aspergillus fumigatus NRRL 163 (Q), A. fumigatus NRRL 5109 (R), and A. fumigatus NRRL 6113 (S) were obtained from Northern Regional Research Laboratory (NRRL). Candida auris 384 (K), C. auris 390 (L), and fungal strains 381-400 (including 10 C. auris (AR Bank #381-390), 3 Candida duobushaemulonii (AR Bank #391, AR Bank #392, and AR Bank #394), 2 Candida haemulonii (AR Bank #393 and AR Bank #395), 1 Kodameae ohmeri (AR Bank #396), 1 C. krusei (AR Bank #397), 1 Candida lusitaniae (AR Bank #398), and 2 Saccharomyces cerevisiae strains (AR Bank #399 and AR Bank #400)) were part of a larger fungal library from the AR Bank maintained by the Centers for Disease Control and Prevention (CDC; Atlanta, GA, USA). Filamentous fungi and yeasts were cultivated at 35° C. in RPMI 1640 medium (with L-glutamine, without sodium bicarbonate, Sigma-Aldrich, St. Louis, MO) buffered to a pH of 7.0 with 0.165 M morpholinepropanesulfonic acid (MOPS) buffer (Sigma-Aldrich). For cytotoxicity assays, HepG2 and the mouse macrophage cell line J774A.1 were obtained from University of Kentucky. The human embryonic kidney cell line, HEK-293, was bought from the ATCC. Mammalian cells were grown in Dulbecco's Modified Eagle's Medium (DMEM) (from VWR) with 10% fetal bovine serum (FBS) (from VWR) and 1% Pen/Strep (from ATCC). Cell lines were cultured at 37° C. with 5% CO2 and passaged by trypsinization with 0.05% trypsin: 0.53 mM EDTA (from Sigma-Aldrich).
(§2) The MIC values of compounds 1a-9j against yeast cells (strains A-P and 381-400) were determined in 96-well plates as described in the CLSI documents M27-A3 and M38-A2 with minor modifications.^2 A single colony of freshly prepared yeast cells was used to inoculate 5 mL of yeast extract peptone dextrose (YPD) broth prior to incubation overnight with shaking at 200 rpm at 35° C. From the actively growing yeast culture, 100 µL were then transferred to 900 μL of RPMI 1640 medium and re-adjusted to achieve OD600 of 0.12 (˜1×10^6 CFU/mL). The cell suspension was further diluted to achieve 1:100 in RPMI 1640 medium. 100 μL of cells were added to the wells of a 96-well microtiter plates that contained 100 µL of the compound solution to obtain concentrations of 0.06-31.3 μg/mL of compounds 1a-9j or AmB prior to incubation for 48 h at 35° C. […]

[2] = tested on: C. albicans ATCC 90819 (D); test: MIC determination by in vitro antifungal assay; format: cell-based, Candida albicans
Procedure: as §1, §2

[3] = tested on: C. albicans ATCC MYA-1237 (F); test: MIC determination by in vitro antifungal assay; format: cell-based, Candida albicans; settings: strain F = C. albicans ATCC MYA-1237(R)
Procedure: as §1, §2

[4] = tested on: Aspergillus nidulans ATCC 38163 (P); test: MIC determination by in vitro antifungal assay; format: cell-based
Procedure: as §1
(§3) The MIC values of compounds 1a-9j against yeast cells (strains A-P and 381-400) were determined in 96-well plates as described in the CLSI documents M27-A3 and M38-A2 with minor modifications.^2 A single colony of freshly prepared yeast cells was used to inoculate 5 mL of yeast extract peptone dextrose (YPD) broth prior to incubation overnight with shaking at 200 rpm at 35° C. From the actively growing yeast culture, 100 µL were then transferred to 900 μL of RPMI 1640 medium and re-adjusted to achieve OD600 of 0.12 (˜1×10^6 CFU/mL). The cell suspension was further diluted to achieve 1:100 in RPMI 1640 medium. 100 μL of cells were added to the wells of a 96-well microtiter plates that contained 100 µL of the compound solution to obtain concentrations of 0.06-31.3 μg/mL of compounds 1a-9j or AmB prior to incubation for 48 h at 35° C.
(§4) Finally, the activity of these monohydrazides was explored against […] non-Candida strains: Cryptococcus neoformans ATCC MYA-895 (M), Aspergillus terreus ATCC MYA-3633 (N), Aspergillus flavus ATCC MYA-3631 (O), Aspergillus nidulans ATCC 38163 (P), Aspergillus fumigatus NRRL 163 (Q), A. fumigatus NRRL 5109 (R), and A. fumigatus NRRL 6113 (S) (Tables 1A and 1B). The double dilution method was used with concentrations ranging from 0.06 to 31.3 j·tg mL^−1 for monohydrazides 1a-9j, and the commercially available positive antifungal control amphotericin B (AmB).

[5] = tested on: Cryptococcus neoformans ATCC MYA-895 (M); test: MIC determination by in vitro antifungal assay; format: cell-based; settings: strain M = C. neoformans ATCC MYA-895
Procedure: as §1, §3, §4

[6] = tested on: Aspergillus flavus ATCC MYA-3631 (O); test: MIC determination by in vitro antifungal assay; format: cell-based; settings: Aspergillus flavus; strain O = A. flavus ATCC MYA-3631; read-out: MIC
Procedure: as §1, §3, §4

[7] = tested on: Aspergillus fumigatus NRRL 163 (Q); test: MIC determination by in vitro antifungal assay; format: cell-based; settings: Aspergillus fumigatus, NRRL163; strain Q = A. fumigatus NRRL 163; read-out: MIC
Procedure: as §1, §3, §4

[8] = tested on: Candida glabrata ATCC 2001 (H); test: MIC determination by in vitro antifungal assay; format: cell-based; settings: ATCC 2001 in text
Procedure: as §1, §2

[9] = tested on: A. fumigatus NRRL 6113 (S); test: MIC determination by in vitro antifungal assay; format: cell-based, Aspergillus fumigatus; settings: Aspergillus fumigatus, NRRL6113; strain S = A. fumigatus NRRL 6113; read-out: MIC
Procedure: as §1, §3, §4

[10] = tested on: A. fumigatus NRRL 5109 (R); test: MIC determination by in vitro antifungal assay; format: cell-based, Aspergillus fumigatus; settings: Aspergillus fumigatus, NRRL5109; strain R = A. fumigatus NRRL 5109; read-out: MIC
Procedure: as §1, §3, §4

[11] = tested on: C. albicans ATCC 10231 (strain A); test: MIC determination by in vitro antifungal assay (CLSI broth dilution); format: cell-based, Candida albicans; settings: strain A = C. albicans ATCC 10231, no visible growth, 48 h at 35° C.
Procedure: as §1, §2

[12] = Candida albicans, read-out: MIC

**Q.** Which MIC [1, 12] does the source give for `O=C(NNc1ccc(F)cc1F)c1cccc(Br)n1` [Compound 6g] here?
**A.** 0.49 µg/mL (≈ 1.49 µM)

**Q.** What about the MIC [1] of the same molecule?
**A.** 0.98 μg/mL^−1

**Q.** What about the MIC ([2]; Candida albicans, ATCC90819, strain D = C. albicans ATCC 90819(R), read-out: MIC) of the same molecule?
**A.** 1.95 µg/mL (≈ 5.94 µM)

**Q.** And the MIC ([2]; strain D = C. albicans ATCC 90819(R))?
**A.** 3.9 μg/mL^−1

**Q.** What about the MIC [3, 12] of the same molecule?
**A.** 0.98 µg/mL (≈ 2.99 µM)

**Q.** What about the MIC [3] of the same molecule?
**A.** 1.95 μg/mL^−1

**Q.** And the MIC ([4]; Aspergillus nidulans, ATCC38163, strain P = A. nidulans ATCC 38163, read-out: MIC)?
**A.** 3.9 µg/mL (≈ 11.9 µM)

**Q.** And the MIC ([4]; strain P = A. nidulans ATCC 38163)?
**A.** 1.95 μg/mL^−1

**Q.** What about the MIC ([5]; Cryptococcus neoformans, read-out: MIC) of the same molecule?
**A.** 0.98 µg/mL (≈ 2.99 µM)

**Q.** And the MIC [5]?
**A.** 0.49 μg/mL^−1

**Q.** What about the MIC [6] of the same molecule?
**A.** > 31.3 µg/mL

**Q.** And the MIC [7]?
**A.** > 31.3 µg/mL

**Q.** And the MIC ([8]; Nakaseomyces glabratus, ATCC 2001 / ATCC 2004, strain H = C. glabrata ATCC 2004 (footnote), read-out: MIC)?
**A.** 7.8 µg/mL (≈ 23.8 µM)

**Q.** And the MIC ([8]; strain H = C. glabrata ATCC 2004 (footnote))?
**A.** 15.6 μg/mL^−1

**Q.** And the MIC [9]?
**A.** > 31.3 µg/mL

**Q.** What about the MIC [10] of the same molecule?
**A.** 31.3 µg/mL (≈ 95.4 µM)

**Q.** What about the MIC ([11]; Candida albicans, ATCC10231, 48 h, read-out: MIC) of the same molecule?
**A.** 1.95 µg/mL (≈ 5.94 µM)

**Q.** What about the MIC [11] of the same molecule?
**A.** 3.9 μg/mL^−1
